Results published in BindingDB's records for PubMed 10779381 (University of Ferrara, 2000).
Where “and” joins values, the source holds several entries; their conditions need not be identical. Equal entries are not always repeated.

How the values were obtained:
Adenosine receptor A3 = molecular target: T1, Adenosine receptor A3 (Homo sapiens, UniProt P0DMS8)
T1 sequence (P0DMS8 whole entry): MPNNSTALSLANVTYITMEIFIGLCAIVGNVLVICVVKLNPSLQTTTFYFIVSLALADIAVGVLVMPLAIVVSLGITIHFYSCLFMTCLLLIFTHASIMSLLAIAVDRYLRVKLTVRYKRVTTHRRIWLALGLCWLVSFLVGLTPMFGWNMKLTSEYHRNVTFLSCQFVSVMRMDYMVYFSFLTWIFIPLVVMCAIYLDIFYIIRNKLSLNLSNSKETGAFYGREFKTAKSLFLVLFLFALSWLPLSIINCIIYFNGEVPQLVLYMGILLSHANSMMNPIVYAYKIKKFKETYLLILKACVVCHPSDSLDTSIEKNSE

Adenosine receptor A1 = molecular target: T2, Adenosine receptor A1 (Rattus norvegicus, UniProt P25099)
T2 sequence (P25099 whole entry): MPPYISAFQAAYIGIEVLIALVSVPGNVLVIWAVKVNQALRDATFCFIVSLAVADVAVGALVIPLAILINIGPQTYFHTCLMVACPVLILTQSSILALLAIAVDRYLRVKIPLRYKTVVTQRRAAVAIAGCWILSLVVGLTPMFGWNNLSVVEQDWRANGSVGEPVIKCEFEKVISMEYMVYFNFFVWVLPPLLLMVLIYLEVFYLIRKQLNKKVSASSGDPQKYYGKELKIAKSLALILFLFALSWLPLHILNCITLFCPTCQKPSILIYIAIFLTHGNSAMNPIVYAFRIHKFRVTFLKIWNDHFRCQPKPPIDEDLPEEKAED

Nc1nc2ccc(Cl)cc2c2nc(-c3ccco3)nn12
Ki (Adenosine receptor A3): 90 nM and 65 nM

Nc1nc2c(cnn2CCc2ccccc2)c2nc(-c3ccco3)nn12
Ki (Adenosine receptor A3): > 10000 nM

CCCn1cc2c(nc(NC(=O)Nc3cccc(Cl)c3)n3nc(-c4ccco4)nc23)n1 [1-(3-chlorophenyl)-3-[2-(furan-2-yl)-8-propyl-8H-pyrazolo[4,3-e][1,2,4]triazolo[1,5-c]pyrimidin-5-yl]urea]
Ki (Adenosine receptor A3): 0.48 nM and 0.98 nM

CCCn1cc2c(nc(NC(=O)Nc3ccc(OC)cc3)n3nc(-c4ccco4)nc23)n1 [J1.251.181G]
Ki (Adenosine receptor A1): > 10 µM
